Assay results taken from patent US12594349B2, “Compositions and methods for the targeting of PCSK9” (Scribe Therapeutics Inc., priority 2022, dated 2026).

Tested on: human PCSK9 locus
Test: Secreted PCSK9 by ELISA in Huh7 cells transfected with mRNA and gRNA
Type: cell-based
Conditions: for Secreted PCSK9 / Percent reduction in PCSK9 secretion / Average percent reduction in PCSK9 secretion: Huh7 cells; for Secreted PCSK9: 6 days post-transfection, normalized to total cell count; for Percent reduction in PCSK9 secretion / Average percent reduction in PCSK9 secretion: LTRP5-ADD-ZIM3 mRNA; for Percent reduction in PCSK9 secretion: day 6, relative to non-targeting gRNA control; for Average percent reduction in PCSK9 secretion: day 6, averaged from the two doses
Experimental: To assess PCSK9 secretion, seeded Huh7 cells were transfected with mRNA encoding a catalytically-active CasX 676, dXR1, or LTRP5-ADD-ZIM3 and a gRNA with scaffold 316 and spacer targeting either the B2M or PCSK9 locus. Media supernatant was harvested at 6, 18, 36, and 87 days post-transfection to assess level of PCSK9 secretion by ELISA. Levels of PCSK9 secretion were normalized to total cell count. As an additional control, PCSK9 secretion was also measured in the media supernatant harvested from wells containing untreated, naïve cells.
The following three human hepatocyte cancer cell lines were used in this experiment: HepG2 cells, Hep3B cells, and Huh7 cells. ˜15,000 cells of each cell line were seeded per well; the next day, seeded cells were transfected with mRNA encoding a catalytically-active CasX 676, dXR1, or LTRP5-ADD-ZIM3 and a gRNA with scaffold 316 and spacer targeting either the B2M or PCSK9 locus (see Table 23 for specific spacers and sequences). Media supernatant was harvested at 4 days post-transfection to assess level of PCSK9 secretion by ELISA, and levels of PCSK9 secretion were normalized to total cell count and illustrated in FIGS. 11A-11C. Culturing of treated Huh7 cells continued, and media supernatant was harvested at 14 and 27 days post-transfection for measuring PCSK9 secretion by ELISA. As an additional experimental control, PCSK9 secretion was also measured in the media supernatant harvested from wells containing untreated, naïve cells.
To assess PCSK9 secretion, seeded Huh7 cells were co-transfected with mRNA encoding for LTRP5-ADD-ZIM3 and a gRNA with scaffold 316 and spacer targeting the PCSK9 locus using Lipofectamine™ 3000. Two doses of total RNA input at a 2:1 mass ratio of mRNA to gRNA were used for screening: 50 ng mRNA:25 ng gRNA and 25 ng mRNA:12.5 ng gRNA. Media supernatant was harvested at 6 days post-transfection to assess level of PCSK9 secretion by ELISA (Table 74). Levels of PCSK9 secretion were normalized to total cell count. As an additional control, PCSK9 secretion was also measured in the media supernatant harvested from cells transfected with mRNA encoding for mScarlet.

[1] = LTRP5-ADD-ZIM3 mRNA + gRNA scaffold 316, 25 ng mRNA:12.5 ng gRNA
[2] = LTRP5-ADD-ZIM3 mRNA + gRNA scaffold 316, 50 ng mRNA:25 ng gRNA

TG-06-134 (guide GAAUUCUAUGGUAGGCACAA; listed as RNA, chemistry not given here)
Secreted PCSK9 [1]: 57.45 ng/mL | Secreted PCSK9 [2]: 43.79 ng/mL | Percent reduction in PCSK9 secretion (25 ng mRNA:12.5 ng gRNA): 19.37% | Percent reduction in PCSK9 secretion (50 ng mRNA:25 ng gRNA): 46.77% | Average percent reduction in PCSK9 secretion: 33.07%

TG-06-158 (guide GGAGCAGGGCGCGUGAAGGG; listed as RNA, chemistry not given here)
Secreted PCSK9 [1]: 31.72 ng/mL | Secreted PCSK9 [2]: 9.39 ng/mL | Percent reduction in PCSK9 secretion (25 ng mRNA:12.5 ng gRNA): 55.48% | Percent reduction in PCSK9 secretion (50 ng mRNA:25 ng gRNA): 88.59% | Average percent reduction in PCSK9 secretion: 72.03%

TG-06-119 (guide GAGCAGGCCAUUUCACUCGG; listed as RNA, chemistry not given here)
Secreted PCSK9 [1]: 84.54 ng/mL | Secreted PCSK9 [2]: 70.37 ng/mL | Percent reduction in PCSK9 secretion (25 ng mRNA:12.5 ng gRNA): 18.66% | Percent reduction in PCSK9 secretion (50 ng mRNA:25 ng gRNA): 14.47% | Average percent reduction in PCSK9 secretion: 2.1%

TG-06-141 (guide ACUGGCCUUAACCUGGCAGC; listed as RNA, chemistry not given here)
average reduction in secreted PCSK9 levels (Huh7, LTRP5-ADD-ZIM3 mRNA + gRNA scaffold 316 v1, 6 days post-transfection, averaged from two doses, relative to non-targeting gRNA): 82.75% | Secreted PCSK9 [1]: 12.58 ng/mL | Secreted PCSK9 [2]: 13.86 ng/mL | Percent reduction in PCSK9 secretion (25 ng mRNA:12.5 ng gRNA): 82.34% | Percent reduction in PCSK9 secretion (50 ng mRNA:25 ng gRNA): 83.16% | Average percent reduction in PCSK9 secretion: 82.75%

TG-06-118 (guide GAGUGAAAUGGCCUGCUCUG; listed as RNA, chemistry not given here)
Secreted PCSK9 [1]: 54.78 ng/mL | Secreted PCSK9 [2]: 35.5 ng/mL | Percent reduction in PCSK9 secretion (25 ng mRNA:12.5 ng gRNA): 23.11% | Percent reduction in PCSK9 secretion (50 ng mRNA:25 ng gRNA): 56.86% | Average percent reduction in PCSK9 secretion: 39.99%

TG-06-131 (guide UGAACAUGGUGUGUAAAAGG; listed as RNA, chemistry not given here)
Secreted PCSK9 [1]: 57.89 ng/mL | Secreted PCSK9 [2]: 28.4 ng/mL | Percent reduction in PCSK9 secretion (25 ng mRNA:12.5 ng gRNA): 18.74% | Percent reduction in PCSK9 secretion (50 ng mRNA:25 ng gRNA): 65.48% | Average percent reduction in PCSK9 secretion: 42.11%

TG-06-153 (guide GUUAAUGUUUAAUCAGAUAG; listed as RNA, chemistry not given here)
Secreted PCSK9 [1]: 86.58 ng/mL | Secreted PCSK9 [2]: 73.23 ng/mL | Percent reduction in PCSK9 secretion (25 ng mRNA:12.5 ng gRNA): 21.52% | Percent reduction in PCSK9 secretion (50 ng mRNA:25 ng gRNA): 10.99% | Average percent reduction in PCSK9 secretion: 5.27%

TG-06-117 (guide ACUUUGUUUGCAAAGACCUC; listed as RNA, chemistry not given here)
Secreted PCSK9 [1]: 98.05 ng/mL | Secreted PCSK9 [2]: 68.98 ng/mL | Percent reduction in PCSK9 secretion (25 ng mRNA:12.5 ng gRNA): 37.62% | Percent reduction in PCSK9 secretion (50 ng mRNA:25 ng gRNA): 16.16% | Average percent reduction in PCSK9 secretion: 10.73%

TG-06-155 (guide GCAGCGACGUCGAGGCGCUC; listed as RNA, chemistry not given here)
Secreted PCSK9 [1]: 56.36 ng/mL | Secreted PCSK9 [2]: 29.45 ng/mL | Percent reduction in PCSK9 secretion (25 ng mRNA:12.5 ng gRNA): 20.89% | Percent reduction in PCSK9 secretion (50 ng mRNA:25 ng gRNA): 64.21% | Average percent reduction in PCSK9 secretion: 42.55%

TG-06-124 (guide CAGUAUCGACAGCCCUUCCA; listed as RNA, chemistry not given here)
Secreted PCSK9 [1]: 30.59 ng/mL | Secreted PCSK9 [2]: 16.54 ng/mL | Percent reduction in PCSK9 secretion (25 ng mRNA:12.5 ng gRNA): 57.06% | Percent reduction in PCSK9 secretion (50 ng mRNA:25 ng gRNA): 79.9% | Average percent reduction in PCSK9 secretion: 68.48%

TG-06-002 (guide ACCGCUGCGCCAAGGUGCGG; listed as RNA, chemistry not given here)
Percent reduction in PCSK9 secretion (50 ng mRNA:25 ng gRNA): 0.4%

TG-06-135 (guide GGAAAGCUGAGCUUGUGCCU; listed as RNA, chemistry not given here)
Secreted PCSK9 [1]: 44.59 ng/mL | Secreted PCSK9 [2]: 25.66 ng/mL | Percent reduction in PCSK9 secretion (25 ng mRNA:12.5 ng gRNA): 37.42% | Percent reduction in PCSK9 secretion (50 ng mRNA:25 ng gRNA): 68.82% | Average percent reduction in PCSK9 secretion: 53.12%

TG-06-122 (guide CCUUUGUUUCUUCCCAGUAU; listed as RNA, chemistry not given here)
Secreted PCSK9 [1]: 86.06 ng/mL | Secreted PCSK9 [2]: 79.36 ng/mL | Percent reduction in PCSK9 secretion (25 ng mRNA:12.5 ng gRNA): 20.79% | Percent reduction in PCSK9 secretion (50 ng mRNA:25 ng gRNA): 3.54% | Average percent reduction in PCSK9 secretion: 8.63%

TG-06-126 (guide CCUUUUCAUCCUCCUGCCUG; listed as RNA, chemistry not given here)
Secreted PCSK9 [1]: 44.82 ng/mL | Secreted PCSK9 [2]: 23.48 ng/mL | Percent reduction in PCSK9 secretion (25 ng mRNA:12.5 ng gRNA): 37.09% | Percent reduction in PCSK9 secretion (50 ng mRNA:25 ng gRNA): 71.46% | Average percent reduction in PCSK9 secretion: 54.27%

TG-06-005 (guide GUGCUCGGGUGCUUCGGCCA; listed as RNA, chemistry not given here)
Secreted PCSK9 [1]: 76.37 ng/mL | Secreted PCSK9 [2]: 67.08 ng/mL | Percent reduction in PCSK9 secretion (25 ng mRNA:12.5 ng gRNA): 7.19% | Percent reduction in PCSK9 secretion (50 ng mRNA:25 ng gRNA): 18.47% | Average percent reduction in PCSK9 secretion: 5.64%

TG-06-120 (guide CUCGGAAUCUGCUGUGCAUC; listed as RNA, chemistry not given here)
Secreted PCSK9 [1]: 47.97 ng/mL | Secreted PCSK9 [2]: 21.43 ng/mL | Percent reduction in PCSK9 secretion (25 ng mRNA:12.5 ng gRNA): 32.67% | Percent reduction in PCSK9 secretion (50 ng mRNA:25 ng gRNA): 73.95% | Average percent reduction in PCSK9 secretion: 53.31%

TG-06-161 (guide GCUCCUGCACAGUCCUCCCC; listed as RNA, chemistry not given here)
Secreted PCSK9 [1]: 53.16 ng/mL | Secreted PCSK9 [2]: 29.55 ng/mL | Percent reduction in PCSK9 secretion (25 ng mRNA:12.5 ng gRNA): 25.38% | Percent reduction in PCSK9 secretion (50 ng mRNA:25 ng gRNA): 64.08% | Average percent reduction in PCSK9 secretion: 44.73%

TG-06-140 (guide AAACUUAGCCUGGACCCCCU; listed as RNA, chemistry not given here)
Secreted PCSK9 [1]: 59.94 ng/mL | Secreted PCSK9 [2]: 61.68 ng/mL | Percent reduction in PCSK9 secretion (25 ng mRNA:12.5 ng gRNA): 15.87% | Percent reduction in PCSK9 secretion (50 ng mRNA:25 ng gRNA): 25.04% | Average percent reduction in PCSK9 secretion: 20.45%

TG-06-171 (guide CAGUACGUUCCAGGCAUUCA; listed as RNA, chemistry not given here)
Secreted PCSK9 [1]: 55.95 ng/mL | Secreted PCSK9 [2]: 52.41 ng/mL | Percent reduction in PCSK9 secretion (25 ng mRNA:12.5 ng gRNA): 21.46% | Percent reduction in PCSK9 secretion (50 ng mRNA:25 ng gRNA): 36.3% | Average percent reduction in PCSK9 secretion: 28.88%

TG-06-132 (guide AGAAGAUUCAAUUUGCAAAG; listed as RNA, chemistry not given here)
Secreted PCSK9 [1]: 75.01 ng/mL | Secreted PCSK9 [2]: 56.68 ng/mL | Percent reduction in PCSK9 secretion (25 ng mRNA:12.5 ng gRNA): 5.29% | Percent reduction in PCSK9 secretion (50 ng mRNA:25 ng gRNA): 31.11% | Average percent reduction in PCSK9 secretion: 12.91%

TG-06-160 (guide CGCGCCCUGCUCCUGAACUU; listed as RNA, chemistry not given here)
Secreted PCSK9 [1]: 48.67 ng/mL | Secreted PCSK9 [2]: 20.63 ng/mL | Percent reduction in PCSK9 secretion (25 ng mRNA:12.5 ng gRNA): 31.69% | Percent reduction in PCSK9 secretion (50 ng mRNA:25 ng gRNA): 74.93% | Average percent reduction in PCSK9 secretion: 53.31%
